Here are results for 6 molecules from patent US5837706A, “Drug for neuroprotection” (Daiichi Pharmaceutical Co., Ltd., priority 1993, dated 1998).

“Also recorded” adds a separate entry of the source. Like-named read-outs stand apart in the source and are kept apart here.

The subject of assay [1] is hippocampal calmodulin. Description: Effect on intracellular localization of hippocampal calmodulin in hippocampal homogenate (radioimmunoassay). It is filed as biochemical, gerbil. The conditions noted are these: for Calmodulin Content, Membrane Fraction / Calmodulin Content, Soluble Fraction: hippocampal homogenate, 37° C., 30 minutes, 1 mM CaCl2, or 1 mM CaCl2 + 10 μM compound A; for Calmodulin Content, Membrane Fraction / Calmodulin Content, Soluble Fraction / effect on the behavior of calmodulin in the presence of EGTA: 1 mM EGTA; for Calmodulin Content, Membrane Fraction: control 8.8 ± 0.25; for Calmodulin Content, Soluble Fraction: control 4.5 ± 0.13. As to the method:
The hippocampus of a gerbil was homogenized with 20 mM tris buffer (pH 7.5) containing 0.1 mM leupeptin, 0.1 mM PMSF and 0.01 mg/ml of aprotinin. […] The precipitate was solubilized with 0.1% Lubrol PX. Then the calmodulin contents in the soluble fraction and the membrane fraction were determined by radioimmunoassay.

In assay [2] the test system is fodrin. Briefly: Effect of calcium ion on breakdown of cytoskeltal protein fodrin in hippocampal homogenate (western blotting). It counts as biochemical, gerbil. The conditions noted are these: 1 mM CaCl2 or 1 mM EGTA, 37° C., 1 hour. The procedure:
The hippocampus taken out from a gerbil was homogenized with 20 mM tris buffer (pH 7.5). […] Then the homogenate was centrifuged at 10,000×g for 30 minutes. After separating proteins contained in the supernatant fraction by SDS-PAGE, the proteins were identified by western blotting with the use of a fodrin antibody (rabbit anti α-Spectrin) and a calmodulin antibody (sheep anti-bovine calmodulin).
(In general: A western blot detects proteins with antibodies after separation by electrophoresis.)

The test system of assay [3] is delayed neuronal cell death. The conditions noted are these: Kogure et al. 1990; cited from earlier work.
Assay [4] deals with T1, calmodulin-depending phosphodiesterase (CaM-PDE) / calmodulin (Bos taurus, UniProt P62157).
T1 construct: calmodulin (CaM, from bovine brain); from tissue; host or cells: bovine brain
Briefly: Calmodulin inhibition effect: inhibition of calmodulin-depending phosphodiesterase (PDE). It is filed as biochemical, bovine. As to the method:
The calmodulin inhibition effect of a compound was evaluated by using its effect of inhibiting calmodulin-depending phosphodiesterase (PDE) as an index. […] After ceasing the reaction by heating in a boiling water bath for 1 minute, snake venom (1 mg/ml) was added thereto and the resulting mixture was reacted at 30° C. for 10 minutes to thereby convert 5'-GMP formed by PDE into guanosine. Next, the unreacted cGMP was adsorbed by an ion exchange resin (AGI-X8). Subsequently, the mixture was centrifuged and the radioactivity of the supernatant was measured with a liquid scintillation counter.

Assay [5] has as its system hippocampal calmodulin. Briefly: Effect on intracellular localization of hippocampal calmodulin in cerebral ischemic gerbil (radioimmunoassay). It counts as in vivo. The conditions noted are these: for increase in the calmodulin content in the membrane fraction / translocation of calmodulin after cerebral ischemia: cerebral ischemic model of gerbil, 100 mg/kg orally, 24 hours after ischemia. The procedure: Both common carotid arteries of a gerbil were ligated for 10 minutes. One hour and 24 hours after allowing the blood stream to flow again, the calmodulin content in the hippocampus was determined by radioimmunoassay. The compound A (100 mg/kg) was suspended in 0.5% methylcellulose and orally administered to the animal 1 hour before cerebral ischemia.

Assay [6] has as its system fodrin. Briefly: Change in fodrin in cerebral ischemic model (western blotting). It is filed as in vivo. The note with it: cerebral ischemic model of gerbil; 100 mg/kg 1 hour before ischemia, evaluated 48 hours thereafter. As to the method:
Both common carotid arteries of a gerbil were ligated for 10 minutes to thereby prepare a cerebral ischemic model. Four, 24 and 48 hours after allowing the blood stream to flow again, the hippocampus was taken out and homogenized with 20 mM tris buffer (pH 7.5) containing 0.1 mM leupeptin, 0.1 mM PMSF and […]. After centrifuging at 10,000×g for 30 minutes, proteins in the supernatant were separated by SDS-PAGE. Then fodrin and breakdown products thereof were identified by the same method as the one described in Pharmacological Example 3. The compound B (100 mg/kg) was administered 1 hour before cerebral ischemia and evaluated 48 hours thereafter. Fodrin breakdown products were little detected from the normal gerbil. In the case of the cerebral ischemic model, on the other hand, breakdown products appeared 4 hours after allowing the blood stream to flow again and similar bands were observed after 48 hours.

Assay [7] deals with hippocampal CA1 neuronal cells. Briefly: Change in hippocampal neuronal cells in cerebral ischemic model. It counts as in vivo, gerbil. The conditions noted are these: for Hippocampal Neuronal Cell Density: 100 mg/kg orally 1 hour after 5 min ischemia, CA1, 7 days, n = 9-10, normal 194 ± 6.1, ischemia 9 ± 1.3; for protective effect on neuronal cells / suppression of neuronal cell death: cerebral ischemia, gerbil, 100 mg/kg orally 1 hour after ischemia. As to the method: When transient cerebral ischemia was loaded to a gerbil, necrosis of hippocampal cells was observed from several days thereafter. This change is called delayed neuronal cell death. Cerebral ischemia was loaded to a gerbil for 5 minutes. Seven days thereafter, the animal was sacrificed and the neuronal cells remaining in the hippocampal CA1 region were counted. Most of the hippocampal CA1 cells died due to the cerebral ischemia.

For assay [8], the system named is fodrin. The conditions noted are these: Seubert et al., Synapse 1987; cited from earlier work.
The mark [9] stands for this setting: 100 mg/kg orally 1 hour before 10 min ischemia, 24 hrs after ischemia, n = 10-12.

Consider `[Ca+2].[Cl-].[Cl-]` [CaCl2, calcium chloride, reference compound], for which, in the assay on hippocampal calmodulin [1] (1 mM calcium chloride, compared with EGTA), the “calmodulin content in the membrane fraction, change in words” value is “increased”. Also, the “Calmodulin Content, Membrane Fraction” value in the assay on hippocampal calmodulin [1] is listed as 11.4 ± 0.34 μg/mg protein. The “stable breakdown products of fodrin (140-150 kDa)” value in the assay on fodrin [2] is on record as “bands of the breakdown products appeared”.

Regarding `O=C(O)CN(CCOCCOCCN(CC(=O)O)CC(=O)O)CC(=O)O` [EGTA, ethylenebis(oxyethylenenitrylo)tetraacetic acid, reference compound], in the assay on hippocampal calmodulin [1], the “Calmodulin Content, Soluble Fraction” value was found to be 12.3 ± 0.77 μg/mg protein and the “Calmodulin Content, Membrane Fraction” value amounted to 7.6 ± 0.40 μg/mg protein. The “stable breakdown products of fodrin (140-150 kDa)” value in the assay with fodrin [2] is “little observed”.

`NCCCCCCNS(=O)(=O)c1cccc2c(Cl)cccc12` [W-7, reference compound]: the “effect on the behavior of calmodulin in the presence of EGTA” value in the assay with hippocampal calmodulin [1] is given as “no effect”. Further, the “effect of suppressing delayed neuronal cell death” value in assay [3] is “no effect”.

As a reminder, the IC50 is the concentration that gives 50% inhibition. For the molecule `COc1ccc(Cn2nc(CCN3CCN(c4cccc(Cl)c4C)CC3)c3cc(OC)c(OC)cc32)cc1OC` [compound A], in assay [4], half-maximal inhibition (IC50) required 3.93 µM and the selectivity for calmodulin result is on record as “high selectivity for calmodulin”. In the assay on hippocampal calmodulin [1] (10 μM compound A, 1 mM calcium chloride, in vitro), the “change in calmodulin content / localization caused by calcium ion” value is recorded as “significantly suppressed”. In the assay with hippocampal calmodulin [1], the “effect on the behavior of calmodulin in the presence of EGTA” value is “no effect”; the “Calmodulin Content, Soluble Fraction” value is listed as 1.75 ± 0.52 μg/mg protein; the “Calmodulin Content, Membrane Fraction” value turned out to be 7.1 ± 0.50 μg/mg protein. Also, in the assay on hippocampal calmodulin [5] (setting [9]), the “Calmodulin Content, Cytoplasm Fraction” value was found to be 1.3 ± 0.08 μg/mg protein and the “Calmodulin Content, Membrane Fraction” value stood at 1.4 ± 0.05 μg/mg protein. The “increase in the calmodulin content in the membrane fraction / translocation of calmodulin after cerebral ischemia” value with hippocampal calmodulin [5] is on record as “significantly suppressed; also recorded: suppress”. Also, in the assay with fodrin [6], the “fodrin breakdown products due to cerebral ischemia” value is reported as “suppress”. Moreover, in assay [7], the “Hippocampal Neuronal Cell Density” value was 98 ± 22.0 /mm and the “protective effect on neuronal cells / suppression of neuronal cell death” value is “a protective effect on neuronal cells was clearly observed; also recorded: suppress neuronal cell death”.

With `COc1cc2c(CCN3CCN(c4cccc(Cl)c4C)CC3)nn(Cc3c[nH]cn3)c2cc1OC` [compound B], in assay [4], the selectivity for calmodulin result is “high selectivity for calmodulin”. Besides, the IC50 in assay [4] (pH 7.5, 1 mM CaCl2, 30° C., 10 minutes) was found to be 5.46 µM. In the assay on hippocampal calmodulin [5], the “increase in the calmodulin content in the membrane fraction / translocation of calmodulin after cerebral ischemia” value is “suppress”. For the same molecule, the “fodrin breakdown products due to cerebral ischemia” value in the assay on fodrin [6] is “scarcely detected; also recorded: suppress”. In addition, in assay [7], the “Hippocampal Neuronal Cell Density” value is on record as 131 ± 21.2 /mm and the “protective effect on neuronal cells / suppression of neuronal cell death” value was “a protective effect on neuronal cells was clearly observed; also recorded: suppress neuronal cell death”.

For `CN1CCN(CCCN2c3ccccc3Sc3ccc(C(F)(F)F)cc32)CC1` [trifluoropelazine], the breakdown of fodrin result with fodrin [8] is listed as “suppressed”.
